Several values for one entry are separate records, joined by “and”; a condition that tells them apart may be missing. Equal entries are not always repeated. Entries after “also recorded” stand apart in the source; their conditions may differ. Where two headings read alike, the source gives them in different places.
Legend:
[1] = tested on: CD3, CD4 and CD8 in peripheral blood; assay: First clinical study of HIV+ patients: CD3, CD4, CD8 levels by flow cytometry; type: in vivo, human; parameters: CD4 / CD8 / CD3: unit not given here; conditions: for CD3 / CD4 / CD8: one value per patient
Description: (§1) Twelve symptomatic patients (five males and seven females) between the ages of 35 to 52 all of whom were infected with HIV in 1995 through blood transfusion and were refractory to standard treatments for HIV were treated with TPA. Each patient was administered a weight adjusted dosage of TPA (75 μg/sq m) in 200 ml of sterile saline by i.v. over one hour. This dose was administered once daily for the first three days of treatment. Each patient was then given this dose every other day for days 4 to 18 followed by a six month rest period prior to a second course of treatment according to the same protocol.
[…] Levels of CD3, CD4 and CD8 in peripheral blood were measured using monoclonal antibodies (Becton Dickson Scientific Co., Franklin Lakes, N.J.) and a flow cytometer (B.D. Bioscience, San Diego, Calif.).

[2] = Treatment of urinary incontinence (patient cases); type: in vivo, human
Source text: Patient twelve has suffered from urinary incontinence for more than 30 years.
Patient one has suffered from urinary incontinence for fifteen years.

HIV [3] = type: in vivo; conditions: for HIV: antiretroviral therapy stopped, one value per patient
Description: Six patients, two males and four females between the ages of 37 and 52 years of age (Patients #13-18), were treated with TPA. Four of these patients previously received TPA treatment in combination with anti-HIV drugs in the two previous clinical studies. […] All treatments were stopped three days prior to the initiation of the third clinical study and were not resumed until 60 days after completion of the TPA treatment. The resumption of the standard HIV treatments was required by local health authorities.
(§2) Each patient in the study received 150 μg of TPA in 200 ml of sterile saline by intravenous infusion over a 1.5 to 2 hour period daily for 60 days for a total administered dose of 9.0 mg. Following completion of the 60 days of TPA therapy, these patients remained under observation for an additional 60 days though the received no further treatment.
CD3, CD4 and CD8 levels in peripheral blood were quantitated prior to starting treatment, and again at 30 and 60 days using flow cytometry and the appropriate antibodies obtained from B.D. Bioscience, San Diego, Calif. Viral load was determined using conventional methods at Kuang Ann men Hospital, Beijing, China. Patients RBC, WBC, platelets and hemoglobin levels were also measured.

[4] = tested on: HIV-cytopathic effects on MT-4 cells; conditions: cited from earlier work
symptomatic HIV patients = assay: First clinical study of HIV+ patients: symptoms and side effects (incl. case studies); type: in vivo, human
Description: as §1
(§3) Results of treatment of initially symptomatic AIDS patients treated with TPA according to the protocols of Example III, IV, and V. Patients who participated in multiple studies are in some cases identified by more than one patient number. All patient identification numbers correspond to the patient numbers in Tables 1-7.

[5] = Treatment of prostate hypertrophy (patient case); type: in vivo, human
Description: Patient eight, diagnosed with prostate hypertrophy. They were injected with 1 ampoule containing 0.19 mg of TPA (0.125 mg/m^2) every other day for four weeks, then 0.24 mg of TPA (1.25×0.125 mg/m^2) every other day for 2 weeks, and 0.26 mg of TPA (1.5×0.125 mg/m^2) every other day for an additional 3 weeks. Their PSA index is now below 3.0.

[6] = Treatment of rheumatoid arthritis (patient case); type: in vivo, human; conditions: multiple injections of TPA
S180 cell-injected mice = assay: Effect of TPA on peripheral WBC and Hb counts in S180 cell-injected mice; conditions: for WBC counts: second day after treatment
Description: Sarcoma 180 (S180) cells were injected into Kwen-Ming mice. On the third day, the mice were given TPA interperitoneally (i.p.). at 50, 100 or 200 μg/kg/day for 7 days. On the second day after the treatment was completed, blood samples were taken from the tails of the treated mice for WBC and Hb analyses.

HIV [7] = assay: First clinical study of HIV+ patients: blood HIV count; type: in vivo
Description: as §1

HIV patients = assay: Third clinical study of HIV+ patients: symptoms and side effects (incl. case studies); type: in vivo, human
Description: Six patients, two males and four females between the ages of 37 and 52 years of age (Patients #13-18), were treated with TPA. Four of these patients previously received TPA treatment in combination with anti-HIV drugs in the two previous clinical studies. The two remaining patients had never been treated with TPA, but had previously received anti-HIV drug regimens. All treatments were stopped three days prior to the initiation of the third clinical study and were not resumed until 60 days after completion of the TPA treatment. The resumption of the standard HIV treatments was required by local health authorities.
as §2, §3

[8] = Four days after TPA, 75 μg/sq m i.v.
[9] = protocol of Example III (first or repeat course)
[10] = protocol of Example III (first or repeat course), individual patients
[11] = twelve symptomatic HIV patients
[12] = TPA 50 μg/kg/day i.p. for 7 days
[13] = TPA 100 μg/kg/day i.p. for 7 days
[14] = TPA 200 μg/kg/day i.p. for 7 days
[15] = 15th day during TPA (patient 07)
[16] = 4 days after initial TPA, one value per patient
[17] = 15 days after initial TPA, one value per patient
[18] = 25 days after initial TPA, one value per patient

## CCCCCCCCCCCCCC(=O)O[C@@H]1[C@@H](C)[C@@]2(O)[C@@H](C=C(CO)C[C@]3(O)C(=O)C(C)=C[C@@H]23)[C@@H]2C(C)(C)[C@]12OC(C)=O [TPA, 12-O-tetradecanoylphorbol-13-acetate]
[1]; After TPA (patients 09-12)
  CD3: 2920 and 1077 and 874 and 362
  CD4: 663 and 445 and 131 and 78
  CD8: <2000 and 591 and 724 and 268
[1]; Forty two days after TPA
  CD3: 799 and 424 and 581 and 1643 and 537 and 146 and 858 and 203
  CD4: 54 and 33 and 44 and 191 and 49 and 1 and 241 and 2
  CD8: 700 and 374 and 493 and 1429 and 429 and 139 and 527 and 111
[1]; [8]
  CD3: 427 and 941 and 1282 and 808 and 598 and 739 and 299 and 2616
  CD4: 36 and 123 and 119 and 179 and 7 and 318 and 3 and 105
  CD8: 366 and 770 and 1330 and 570 (2×) and 355 and 180 and <2000
[1]; twelve patients
  change in CD3, CD4, or CD8 levels (summary of Table 1): no consistent change or correlation was observed
[2]; nine injections of 0.18 mg of TPA
  urinary frequency: regained normal urinary frequency
[2]; six injections of 0.18 mg of TPA
  urinary frequency: regained normal urinary frequency
HIV [3]; Sixty Days After TPA
  HIV: 0.038 copies/ml (All Figures in Mill and Undetectable (2×) and 0.012 copies/ml (All Figures in Mill and 0.056 copies/ml (All Figures in Mill and 0.133 copies/ml (All Figures in Mill
HIV [3]; Thirty Days After TPA
  HIV: 0.353 copies/ml (All Figures in Mill and 1.99 copies/ml (All Figures in Mill and 1.28 copies/ml (All Figures in Mill and 0.152 copies/ml (All Figures in Mill and 0.174 copies/ml (All Figures in Mill and 0.533 copies/ml (All Figures in Mill
HIV [3]; six patients, 150 μg TPA daily for 60 days
  viral load rebound after discontinuation of antiretroviral therapy: no rebound in viral levels; also recorded: no viral load rebound
[4]
  HIV-cytopathic effects: inhibit the HIV-cytopathic effects on MT-4 cells
Symptomatic HIV patients; first treatment with TPA, individual patients
  duration of shortness of breath: 15 min
Symptomatic HIV patients; patient #10, rose from 30,000
  platelet count after TPA treatment: 110,000 per microliter
Symptomatic HIV patients; protocol of Example III
  other side effects during TPA treatment (individual patient): did not experience an increase in body temperature or any other side effect; also recorded: mild dizziness and headache; also recorded: serious skin irritation; also recorded: skin irritation due to a leaking needle
Symptomatic HIV patients; [9]
  symptom free period after TPA therapy (individual patient): five months; also recorded: one year
  symptoms after treatment with TPA (individual patient): gradual improvement in symptoms; also recorded: their oral lesions, skin thrush and fever disappeared; also recorded: marked improvement in their symptoms; also recorded: The lymph node returned to normal size; also recorded: no improvement in symptoms occurred; also recorded: their symptoms remained unchanged; also recorded: the frequency of their colds decreased; also recorded: their diarrhea was completely gone; also recorded: their dizziness, headache and diarrhea gradually lessened; also recorded: the dizziness, headache, fever and skin thrush were improving and gradually faded away; also recorded: their symptoms disappeared completely; also recorded: all their symptoms disappeared
Symptomatic HIV patients; [10]
  duration of the increase in body temperature: 1-2 hours and four and 4 hours
  increase in body temperature during TPA treatment: 38-39 °C and 38 °C and 38.5 °C
Symptomatic HIV patients; [11]
  additional patients with a decrease in symptoms: Three additional patients had a decrease in symptoms
  patients who became symptom free: Eight patients became symptom free
Symptomatic HIV patients; twelve symptomatic HIV patients, 75 μg/sq m i.v.
  patients with significant improvement following treatment: eleven of the patients showed significant improvement
[5]; 0.19, 0.24, 0.26 mg TPA every other day over 9 weeks
  PSA index: below 3.0
[5]; same patient
  appearance: developed a more youthful appearance
[6]
  joint stiffness and hand function: reduction in stiffness in the joints and an increase in functionality in their hands
S180 cell-injected mice; [12]
  Hb: 136 ± 11 g/L
  WBC counts: 16.1±7.4 ×10^9/L
S180 cell-injected mice; [13]
  Hb: 149 ± 12 g/L
  WBC counts: 18.7±3.0 ×10^9/L
S180 cell-injected mice; [14]
  Hb: 149 ± 10 g/L
  WBC counts: 20.7±3.4 ×10^9/L
HIV [7]; [15]
  BLOOD HIV COUNT LOG VALUE: 4.988
  BLOOD HIV COUNT RESULTS: 9.74 × 10^4 copies/ml
HIV [7]; [16]
  BLOOD HIV COUNT LOG VALUE: 6.899 and 4.910 and 7.243 and 5.974 and 4.160 and 5.179 and 5.959 and 6.151
  BLOOD HIV COUNT RESULTS: 7.92 × 10^6 copies/ml and 8.13 × 10^4 copies/ml and 1.75 × 10^7 copies/ml and 9.42 × 10^5 copies/ml and 1.44 × 10^4 copies/ml and 1.51 × 10^5 copies/ml and 9.09 × 10^5 copies/ml and 1.41 × 10^4 copies/ml
HIV [7]; 7 days after TPA (patient 06)
  BLOOD HIV COUNT LOG VALUE: 6.357
  BLOOD HIV COUNT RESULTS: 2.28 × 10^6 copies/ml
HIV [7]; [17]
  BLOOD HIV COUNT LOG VALUE: 4.306 and 6.801 and 3.786 and 6.614 and 7.369 and 5.274 and 6.737
  BLOOD HIV COUNT RESULTS: 2.02 × 10^4 copies/ml and 6.33 × 10^6 copies/ml and 6.11 × 10^3 copies/ml and 1.11 × 10^6 copies/ml and 2.34 × 10^7 copies/ml and 1.88 × 10^5 copies/ml and 5.46 × 10^6 copies/ml
HIV [7]; [18]
  BLOOD HIV COUNT LOG VALUE: 4.416 and 6.941 and 5.934 and 4.084 and 6.745 and 3.724 and 6.890
  BLOOD HIV COUNT RESULTS: 2.60 × 10^4 copies/ml and 8.72 × 10^6 copies/ml and 8.59 × 10^5 copies/ml and 1.21 × 10^4 copies/ml and 5.56 × 10^6 copies/ml and 5.30 × 10^3 copies/ml and 7.77 × 10^6 copies/ml and undetectable
HIV [7]; 25 days after initial TPA, sample taken from the second cycle treatment (patients 10-12)
  BLOOD HIV COUNT LOG VALUE: 4.446 and 5.096 and 3.798
HIV [7]; twelve patients
  change of viral load (summary of Table 2): five patients having an increase in HIV and no change or a reduction in seven others
HIV patients; 120 day observation and treatment period
  recurrence of AIDS symptoms: no recurrence of AIDS symptoms
HIV patients; protocol of Example V
  side effects of TPA treatment (individual patient): local irritation due to a leaking needle; also recorded: a fever on one occasion; also recorded: skin irritation from a leaking needle; also recorded: no side effects
HIV patients; protocol of Example V, antiviral therapy stopped
  AIDS symptoms during and after treatment (individual patient): No AIDS symptoms returned; also recorded: remains symptom free; also recorded: No AIDS symptoms occurred
HIV patients; protocol of Example V, individual patients
  fever during TPA infusion: 38-38.5 °C and 38-39 °C

From US9636317B2, “Compositions and methods of use of phorbol esters” (priority 2007, dated 2017)
